Results taken from US20150216189A1, “NATAMYCIN-CYCLODEXTRIN COMPLEXES FOR USE IN FOODSTUFF, PROCESS FOR THEIR MANUFACTURE AND USE THEREOF” (priority 2011, published 2015).

How the values were obtained:
[1] = test system: yeasts and moulds; details: cited from earlier work
[2] = Description: Natamycin is sensitive to both high and low pH values and is degraded under such conditions. Despite this fact, the present invention utilizes such pH ranges. […] Typically the pH value is in the range of 10 to 12. In another embodiment the pH value of the aqueous solution in the complexation step is in the range of 6 or lower, preferably 1 to 4. Typically the pH value is lower than 4, such as in the range of 3 to 4. […] The tests in FIG. 1 and FIG. 2 were made through mixing natamycin (1%) and cyclodextrin (1%) with water (98%)
[3] = cited from earlier work
[4] = Antifungal activity on baked goods
Description: Studies were done wherein aqueous solutions of natamycin-cyclodextrin complexes have been applied onto shredded cheese or used in pharmaceutical preparations.

[5] = test system: mould; assay: Tortilla spray application shelf life study (mould growth); details: 21.7° C., no natamycin (variables 2, 3)
Experimental: A gamma-cyclodextrin-natamycin solution was produced employing a high pH system and the obtained solution was spray dried. Tortillas were treated with a standard natamycin (Natamax® SF) treatment, the spray-dried gamma-cyclodextrin-natamycin product, and traditional chemical preservatives to assess relative antifungal efficacy in baked goods.
Sample Variables in the Tortilla Treatments: • 1. Control—Deionized Water • 2. Control—Gamma-cyclodextrin (0.5% solution) • 3. Traditional Chemical Preservatives (fumarate, sorbate, propionate) • 4. Natamax® SF (target of ˜12 ppm natamycin on finished product) • 5. Gamma-cyclodextrin-natamycin powder (target of ˜12 ppm natamycin on finished product) • 6. Gamma-cyclodextrin-natamycin powder (target of ˜6 ppm natamycin on finished product)
For the spray application, each of the solutions were sprayed on 36 tortillas (about seven inches in diameter) using roughly the same spray volume. The tortillas were held on standard storage racks at 21.7° C. and monitored 0 to 30 days for mould growth.

C[C@@H]1C/C=C/C=C/C=C/C=C/[C@H](O[C@@H]2O[C@H](C)[C@@H](O)[C@H](N)[C@@H]2O)C[C@@H]2O[C@](O)(C[C@@H](O)C[C@H]3O[C@@H]3/C=C/C(=O)O1)C[C@H](O)[C@H]2C(=O)O [Natamycin]
concentrations inhibiting most strains [1]: 1-40 ppm | percentage of solubilized natamycin [2]: lower than 4% | maximum water solubility [3]: around 40 ppm

OC[C@H]1O[C@@H]2O[C@H]3[C@H](O)[C@@H](O)[C@@H](O[C@H]4[C@H](O)[C@@H](O)[C@@H](O[C@H]5[C@H](O)[C@@H](O)[C@@H](O[C@H]6[C@H](O)[C@@H](O)[C@@H](O[C@H]7[C@H](O)[C@@H](O)[C@@H](O[C@H]8[C@H](O)[C@@H](O)[C@@H](O[C@H]9[C@H](O)[C@@H](O)[C@@H](O[C@H]1[C@H](O)[C@H]2O)O[C@@H]9CO)O[C@@H]8CO)O[C@@H]7CO)O[C@@H]6CO)O[C@@H]5CO)O[C@@H]4CO)O[C@@H]3CO [Variable 2, Gamma-cyclodextrin]
antifungal activity when applied on baked goods [4]: no antifungal activity | Number of moulded tortillas ([5]; Day 0): 0 | Number of moulded tortillas ([5]; Day 5): 20 | Number of moulded tortillas ([5]; Day 6): 25 | Number of moulded tortillas ([5]; Day 7): 26 | Number of moulded tortillas ([5]; Day 8): 28 | Number of moulded tortillas ([5]; Day 9): 28 | Number of moulded tortillas ([5]; Day 12): 30 | Number of moulded tortillas ([5]; Day 13): 30 | Number of moulded tortillas ([5]; Day 14): 30 | Number of moulded tortillas ([5]; Day 15): 30 | Number of moulded tortillas ([5]; Day 16): 30 | Number of moulded tortillas ([5]; Day 19): 30 | Number of moulded tortillas ([5]; Day 20): 30 | Number of moulded tortillas ([5]; Day 21): 30 | Number of moulded tortillas ([5]; Day 26): 30 | Number of moulded tortillas ([5]; Day 27): 30 | Number of moulded tortillas ([5]; Day 28): 30 | Number of moulded tortillas ([5]; Day 29): 30 | Number of moulded tortillas ([5]; Day 30): 30
